Type in all cases: physicochemical
A short description of data set [1]: Final polymorph after holding in different solvents at different temperatures. How it is done:
Thus, preferably the solution of 3-[5-amino-4-(3-cyanobenzoyl)-pyrazol-1-yl]-N-cyclopropyl-4-methylbenzamide is not exposed to temperatures of greater than 70° C. for more than 24 hours, preferably not more than 12 hours, preferably not more than 6 hours.
Thus, it can be seen that at the higher temperatures of 70 and 80° C., conversion to Form B is effected, or a mixture of Form A and Form B are produced, particularly over longer periods of time. It can also be seen that the hydrate is formed when water is included in the solvent.

A short description of data set [2]: Variable temperature XRPD of Form A. How it is done: The sample was placed in Anton-Paar TTK 450 chamber at 25° C. The temperature was controlled in-situ through the measurement files: p2853-vt, LRP-1301-39-01.dql, LRP-1301-42-01.dql, LRP-1301-42-02.dql. The sample was heated from 25° C. to 200° C. at 1° C./min. XRPD data were collected from 30° C. to 200° C. every 10° C. Approximately 40 mg of the sample was placed in a Ni-coated sample holder under ambient conditions. The sample was loaded at 25° C.
At 200° C., changes (shifts) in peak position in the high 2-theta region were observed. This may be attributed to the thermal expansion effect.

Data set [3] can be described thus: Hygroscopicity (statement, method not given).

As to `Cc1ccc(C(=O)NC2CC2)cc1-n1ncc(C(=O)c2cccc(C#N)c2)c1N` [3-[5-amino-4-(3-cyanobenzoyl)-pyrazol-1-yl]-N-cyclopropyl-4-methylbenzamide], the Final polymorph result is “hydrate” in data set [1] (60° C., DMAC/H2O = 1/1, 1 day); “hydrate” in data set [1] (60° C., H2O, 1 day); “A + B” in data set [1] (70° C., EtOH, 3 days); “A + B” in data set [1] (70° C., n-PrOH, 3 days).

As to `Cc1ccc(C(=O)NC2CC2)cc1-n1ncc(C(=O)c2cccc(C#N)c2)c1N` [Form A, 3-[5-amino-4-(3-cyanobenzoyl)-pyrazol-1-yl]-N-cyclopropyl-4-methylbenzamide], the “Temperature above which Form A converted to Form B on heating” value in data set [2] (variable temperature XRPD, heated from 25° C. to 200° C. at 1° C./min) is “above 100 °C”. In addition, the Hygroscopicity result in data set [3] was “non-hygroscopic”.

For the molecule `Cc1ccc(C(=O)NC2CC2)cc1-n1ncc(C(=O)c2cccc(C#N)c2)c1N` [Form B, 3-[5-amino-4-(3-cyanobenzoyl)-pyrazol-1-yl]-N-cyclopropyl-4-methylbenzamide], in data set [2] (after heating to 200° C.), the “Solid form by XRPD after cooling to room temperature” value is “remained unchanged”.

The values are drawn from patent US11434204B2, “Method for producing a polymorphic form of 3-[5-amino-4-(3-cyanobenzoyl)-pyrazol-1-yl]-N-cyclopropyl-4-methylbenzamide” (MEREO BIOPHARMA 1 LIMITED, priority 2016, dated 2022).
